Reference: patent US8877707B2, “Inhibitors of HCV NS5A” (Presidio Pharmaceuticals, Inc., priority 2010, dated 2014)
pEC50: −log10 of the molar value.

test system: HCV genotype 1b replicon in Huh 7 cells; experiment: HCV replicon assay (1b_Huh-Luc/Neo-ET cell line, luciferase readout); type: cell-based; conditions: Hepatitis C virus, Huh-7; HCV 1b replicon; read-out: Inhibition of HCV genotype 1b
In short: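 Replicon level was read as luciferase signal after 72 h compound exposure, triplicate wells, starting the day after cells were plated. Cell line: 1b_Huh-Luc/Neo-ET. Values normalised to control as percent, and EC50 fitted with a variable-slope sigmoid; determinations repeated.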

Structure (SMILES) | pEC50
COC(=O)N[C@@H](C)C(=O)N1CCC[C@H]1c1ncc(-c2ccc3nc(-c4ccc(-c5cnc([C@@H]6CCCN6C(=O)[C@H](NC(=O)OC)c6ccccc6)[nH]5)c(F)c4)ccc3c2)[nH]1 [compound 459] | > 9.00
CC[C@H](C)[C@H](NC(=O)OC)C(=O)N1CCC[C@H]1c1nc2ccc(-c3ccc4cc(-c5cnc([C@@H]6CCCN6C(=O)[C@@H](NC(=O)OC)[C@@H](C)O)[nH]5)ccc4c3)cc2[nH]1 [compound 524] | > 9.00
COC(=O)N[C@H](C(=O)N1CCC[C@H]1C(=O)Nc1ccc(-c2ccc3cc(-c4cnc([C@@H]5CCCN5C(=O)[C@@H](NC(=O)OC)C(C)C)[nH]4)ccc3n2)cc1)C(C)C [compound 541] | 8.00 to 9.00
COC(=O)N[C@H](C(=O)N1CCC[C@H]1CNC(=O)c1cnc2cc(-c3ccc(-c4cnc([C@@H]5CCCN5C(=O)[C@@H](NC(=O)OC)C(C)C)[nH]4)cc3)ccc2c1)C(C)C [compound 552] | 8.00 to 9.00
COC(=O)N[C@H](C(=O)N1CCC[C@H]1c1ncc(-c2ccc(-c3ccc4cc(-c5cnc([C@@H]6CCCN6C(=O)[C@@H](NC(=O)OC)[C@@H](C)OC)[nH]5)ccc4c3)nc2)[nH]1)C(C)C [compound 479] | > 9.00
COC(=O)N[C@H](C(=O)N1CCC[C@H]1c1ncc(-c2ccc3cc(-c4ccc(-c5cnc([C@@H]6CCCN6C(=O)[C@H](NC(=O)OC)c6ccccc6)[nH]5)nn4)ccc3c2)[nH]1)C(C)C [compound 461] | > 9.00
COC(=O)N[C@H](C(=O)N1CCC[C@H]1c1ncc(-c2cnc3cc(-c4ccc(-c5cnc([C@@H]6CCCN6C(=O)[C@@H](NC(=O)OC)[C@@H](C)OC)[nH]5)cc4)ccc3c2)[nH]1)C(C)C [compound 488] | > 9.00
CCC(CC)[C@H](NC(=O)OC)C(=O)N1CCC[C@H]1c1ncc(-c2ccc(-c3ccc4cc(-c5cnc([C@@H]6CCCN6C(=O)[C@@H](NC(=O)OC)[C@@H](C)OC)[nH]5)ccc4c3)cc2)[nH]1 [compound 505] | > 9.00

same assay, conditions: Hepatitis C virus; Table 1; genotype 1b replicon, Huh 7 cells, 72 h, luciferase; read-out: Inhibition of HCV genotype 1b

Structure (SMILES) | pEC50
COC(=O)N[C@H](C(=O)N1CCC[C@H]1c1nc2ccc(-c3ccc4cc(-c5cnc([C@@H]6CCCN6C(=O)[C@@H](c6ccccc6)N6CCCC6)[nH]5)ccc4c3)cc2[nH]1)C(C)C [compound 178] | > 9.00
COC(=O)N[C@H](C(=O)N1CCC[C@H]1c1ncc(-c2ccc(-c3nc4ccc(-c5cnc([C@@H]6CCCN6C(=O)[C@H](NC(=O)OC)c6ccccc6)[nH]5)cc4s3)cc2)[nH]1)C(C)C [compound 241] | > 9.00
C=CC[C@H](NC(=O)OC)C(=O)N1CCC[C@H]1c1ncc(-c2ccc3nc(-c4ccc(-c5cnc([C@@H]6CCCN6C(=O)[C@@H](NC(=O)OC)C6CCOCC6)[nH]5)cc4F)ccc3c2)[nH]1 [compound 160] | > 9.00
COC(=O)N[C@@H](C(=O)N1CCC[C@H]1c1nc(-c2ccc3nc(-c4ccc(-c5cnc([C@@H]6CCCN6C(=O)[C@H](NC(=O)OC)c6ccccc6)[nH]5)nc4)ccc3c2)c[nH]1)c1ccccc1 [compound 54] | > 9.00
COC(=O)N[C@H](C(=O)N1CCC[C@H]1c1ncc(-c2ccc3nc(-c4ccc5c(ccc6nc([C@@H]7CCCN7C(=O)[C@@H](NC(=O)OC)C(C)C)[nH]c65)c4)ccc3c2)[nH]1)C(C)C [compound 296] | > 9.00
COC(=O)N[C@H](C(=O)N1CCC[C@H]1c1nc(-c2ccc3nc(-c4ccc(-c5cnc([C@@H]6CCCN6C(=O)[C@@H](NC(=O)OC)[C@@H](C)OC)[nH]5)cc4)ccc3c2)c[nH]1)C(C)C [compound 43] | > 9.00
COC(=O)N[C@H](C(=O)N1CCC[C@H]1c1nc2ccc(-c3ccc4cc(-c5ccc6nc([C@@H]7CCCN7C(=O)[C@H](NC(=O)OC)c7ccccc7)[nH]c6c5)ccc4c3)cc2[nH]1)C(C)C [compound 283] | > 9.00
COC(=O)N[C@H](C(=O)N1CCC[C@H]1c1ncc(-c2cnc3cc(-c4ccc5nc([C@@H]6CCCN6C(=O)[C@H](NC(=O)OC)c6ccccc6)[nH]c5c4)ccc3c2)[nH]1)C(C)C [compound 188] | 8.00 to 9.00
COC(=O)N[C@H](C(=O)N1CCC[C@H]1c1ncc(-c2cnc3cc(-c4ccc5nc([C@@H]6CCCN6C(=O)[C@@H](NC(=O)OC)C6CCOCC6)[nH]c5c4)ccc3c2)[nH]1)C(C)C [compound 192] | > 9.00
COC(=O)N[C@H](C(=O)N1CCC[C@H]1c1ncc(-c2ccc3nc(-c4ccc(-c5cnc([C@@H]6CCCN6C(=O)[C@H](NC(=O)OC(C)(C)C)c6ccccc6)[nH]5)cc4)oc3c2)[nH]1)C(C)C [compound 254] | > 9.00
COC(=O)N[C@H](C(=O)N1CCC[C@H]1c1ncc(-c2ccc(-c3cc4ccc(-c5cnc([C@@H]6CCCN6C(=O)[C@H](NC(=O)OC6CCOCC6)c6ccccc6)[nH]5)cc4cn3)cc2F)[nH]1)C(C)C [compound 156] | > 9.00
COC(=O)N[C@H](C(=O)N1CCC[C@H]1c1nc2ccc(-c3ccc4cc(-c5ccc6nc([C@@H]7CCCN7C(=O)[C@@H](NC(=O)OC)C7CCOCC7)[nH]c6c5)ccc4c3)cc2[nH]1)C(C)C [compound 282] | > 9.00
COC(=O)N[C@@H](C(=O)N1CCC[C@H]1c1nc(-c2ccc3nc(C45CCC(c6cnc([C@@H]7CCCN7C(=O)[C@H](NC(=O)OC)c7ccccc7)[nH]6)(CC4)CC5)ccc3c2)c[nH]1)c1ccccc1 [compound 263] | > 9.00
COC(=O)N[C@H](C(=O)N1CCC[C@H]1c1nc(-c2ccc3nc(-c4ccc(-c5cnc([C@@H]6CCCN6C(=O)[C@@H](NC(=O)OC)C6CCOCC6)[nH]5)cc4F)ccc3c2)c[nH]1)C1CCOCC1 [compound 98] | > 9.00
COC(=O)N[C@H](C(=O)N1CCC[C@H]1c1ncc(-c2ccc3cc(-c4ccc5nc([C@@H]6CCCN6C(=O)[C@@H](c6ccccc6)N6CCOCC6)[nH]c5c4)ccc3c2)[nH]1)C(C)C [compound 213] | > 9.00
CCNC(=O)N[C@@H](C(=O)N1CCC[C@H]1c1ncc(-c2ccc3nc(-c4ccc(-c5cnc([C@@H]6CCCN6C(=O)[C@@H](NC(=O)OC)C(C)C)[nH]5)cc4)sc3c2)[nH]1)c1ccccc1 [compound 244] | > 9.00
COC(=O)N[C@H](C(=O)N1CCC[C@H]1c1nc(-c2ccc3cc(-c4ccc(-c5cnc([C@@H]6CCCN6C(=O)[C@H](NC(=O)NC6CC6)c6ccccc6)[nH]5)cc4)ccc3c2)c[nH]1)C(C)C [compound 24] | > 9.00
COC(=O)N[C@H](C(=O)N1CCOC[C@H]1c1ncc(-c2ccc3cc(-c4ccc(-c5cnc([C@@H]6COCCN6C(=O)[C@H](NC(=O)OC)c6ccccc6)[nH]5)cc4)ccc3c2)[nH]1)C(C)C [compound 168] | > 9.00
COC(=O)N[C@H](C(=O)N1CCC[C@H]1c1ncc(-c2ccc(-c3ccc4cc(-c5c[nH]c([C@@H]6CCCN6C(=O)[C@H](NC(=O)NC6CC6)c6ccccc6)n5)ccc4c3)cc2)[nH]1)C(C)C [compound 29] | > 9.00
COC(=O)N[C@H](C(=O)N1CCC[C@H]1c1ncc(-c2ccc3oc(-c4ccc(-c5cnc([C@@H]6CCCN6C(=O)[C@H](NC(=O)OC)c6ccccc6)[nH]5)cc4)nc3c2)[nH]1)C(C)C [compound 260] | > 9.00
COC(=O)N[C@H](C(=O)N1CCC[C@H]1c1ncc(-c2ccc(-c3ccc4cc(-c5cnc([C@@H]6COCCN6C(=O)[C@@H](NC(=O)OC)C(C)C)[nH]5)ccc4c3)cc2)[nH]1)C(C)C [compound 140] | > 9.00
COC(=O)N[C@H](C(=O)N1CCC[C@H]1c1ncc(-c2ccc3nc(-c4ccc(-c5cnc([C@@H]6CCCN6C(=O)[C@H](NC(=O)OC)c6ccccc6)[nH]5)cc4F)ccc3c2)[nH]1)C1CCOCC1 [compound 134] | > 9.00
COC(=O)N[C@H](C(=O)N1CCC[C@H]1c1ncc(-c2ccc(-c3nc4ccc(-c5cnc([C@@H]6CCCN6C(=O)[C@H](NC(=O)OC(C)(C)C)c6ccccc6)[nH]5)cc4s3)cc2)[nH]1)C(C)C [compound 242] | > 9.00
COC(=O)N[C@H](C(=O)N1CCC[C@H]1c1nc(-c2ccc3c(c2)CCN(c2c(F)cc(-c4cnc([C@@H]5CCCN5C(=O)[C@@H](NC(=O)OC)C5CC5)[nH]4)cc2F)C3)c[nH]1)C1CC1 [compound 271] | > 9.00
COC(=O)N[C@H](C(=O)N1CCC[C@H]1c1nc(-c2cnc3cc(-c4ccc(-c5cnc([C@@H]6CCCN6C(=O)[C@@H](NC(=O)OC)C(C)C)[nH]5)nc4)ccc3c2)c[nH]1)C(C)C [compound 93] | > 9.00
COC(=O)N[C@H](C(=O)N1CCC[C@H]1c1nc(-c2ccc3cc(-c4ccc(-c5cnc([C@@H]6CCCN6C(=O)[C@@H](NC(=O)OC)C(C)C)[nH]5)cc4)ncc3c2)c[nH]1)C(C)C [compound 22] | > 9.00

same assay, conditions: Hepatitis C virus; Table 2; genotype 1b replicon, Huh 7 cells, 72 h, luciferase; read-out: Inhibition of HCV genotype 1b

Structure (SMILES) | pEC50
COC(=O)N[C@H](C(=O)N[C@@H](C)c1ncc(-c2ccc3cc(-c4ccc(-c5cnc([C@@H]6CCCN6C(=O)[C@H](NC(=O)OC)c6ccccc6)[nH]5)cc4)ccc3c2)[nH]1)[C@@H](C)OC [compound 329] | > 9.00
CC[C@H](C)[C@H](NC(=O)OC)C(=O)N1CCC[C@H]1c1ncc(-c2ccc3cc(-c4ccc5nc([C@@H]6CCCN6C(=O)[C@@H](NC(=O)OC)[C@@H](C)CC)[nH]c5c4)ncc3c2)[nH]1 [compound 374] | > 9.00
COC(=O)N[C@H](C(=O)N1CCC[C@H]1c1ncc(-c2ccc3cc(-c4ccc(-c5cnc([C@@H]6CCCN6C(=O)[C@H](NC(=O)OC)c6ccccc6)[nH]5)nn4)ccc3c2)[nH]1)C1CCOCC1 [compound 315] | > 9.00
COC(=O)N[C@H](C(=O)N1CCC[C@H]1c1ncc(-c2ccc3cc(-c4ccc5nc([C@@H]6COCCN6C(=O)[C@@H](NC(=O)OC)C6CC6)[nH]c5c4)ccc3c2)[nH]1)C1CC1 [compound 356] | > 9.00
COC[C@H](NC(=O)OC)C(=O)N1CCOC[C@H]1c1ncc(-c2ccc3cc(-c4ccc(-c5cnc([C@@H]6CCCN6C(=O)[C@H](NC(=O)OC)c6ccccc6)[nH]5)cc4)ccc3c2)[nH]1 [325-1] | > 9.00
CC[C@H](C)[C@H](NC(=O)OC)C(=O)N1CCC[C@H]1c1ncc(-c2ccc3cc(-c4cc5[nH]c([C@@H]6CCCN6C(=O)[C@@H](NC(=O)OC)[C@@H](C)CC)nc5cn4)ccc3c2)[nH]1 [compound 412] | > 9.00
